Experiments:
[1] = tested on: Mast/stem cell growth factor receptor Kit (Homo sapiens), P10721 [D816V]; details: at 10 µM
[2] = biological target: Leucine-rich repeat serine/threonine-protein kinase 2 (Homo sapiens, UniProt Q5S007); test: Selectivity interaction (SelectScreen Kinase Profiling (Thermo Fisher Scientific)) EUB0001558a LRRK2; details: at 1 µM
[3] = biological target: Histone-lysine N-methyltransferase KMT5C (Homo sapiens) (UniProt Q86Y97); test: Selectivity interaction (Methyltransferase screen (Scintillation proximity assays)) EUB0000255b SUV420H2
Chain of Histone-lysine N-methyltransferase KMT5C (Homo sapiens) (Q86Y97 whole entry, looked up): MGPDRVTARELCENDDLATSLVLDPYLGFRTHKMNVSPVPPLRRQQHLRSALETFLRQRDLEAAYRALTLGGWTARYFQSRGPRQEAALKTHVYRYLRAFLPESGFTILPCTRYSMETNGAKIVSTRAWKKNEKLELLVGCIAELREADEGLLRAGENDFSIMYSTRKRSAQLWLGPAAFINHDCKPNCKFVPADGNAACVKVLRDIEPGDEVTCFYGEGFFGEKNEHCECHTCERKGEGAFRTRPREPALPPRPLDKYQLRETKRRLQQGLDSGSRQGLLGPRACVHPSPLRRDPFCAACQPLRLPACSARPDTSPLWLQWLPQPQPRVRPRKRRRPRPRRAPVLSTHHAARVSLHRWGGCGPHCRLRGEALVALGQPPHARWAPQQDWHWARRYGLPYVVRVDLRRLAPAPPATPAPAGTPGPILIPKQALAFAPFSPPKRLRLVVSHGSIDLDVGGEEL

[4] = biological target: Cyclin-dependent kinase 8 (Homo sapiens, UniProt P49336); test: Selectivity interaction (KinomeScan (DiscoverX)) EUB0000655a CDK8; details: at 10 µM
Chain of Cyclin-dependent kinase 8 (P49336 whole entry): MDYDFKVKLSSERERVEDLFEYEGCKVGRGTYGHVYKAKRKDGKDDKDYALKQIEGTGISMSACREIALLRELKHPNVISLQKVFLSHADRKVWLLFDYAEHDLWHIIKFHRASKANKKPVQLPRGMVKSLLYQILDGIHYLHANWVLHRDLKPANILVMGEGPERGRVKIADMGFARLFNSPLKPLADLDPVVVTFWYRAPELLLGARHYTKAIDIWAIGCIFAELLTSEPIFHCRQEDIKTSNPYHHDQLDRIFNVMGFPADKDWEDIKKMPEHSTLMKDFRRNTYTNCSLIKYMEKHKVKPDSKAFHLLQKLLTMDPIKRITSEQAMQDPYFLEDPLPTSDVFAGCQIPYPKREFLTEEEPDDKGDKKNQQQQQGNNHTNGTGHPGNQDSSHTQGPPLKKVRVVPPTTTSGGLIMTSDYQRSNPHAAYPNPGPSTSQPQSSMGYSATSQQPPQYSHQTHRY

D(2) dopamine receptor = D(2) dopamine receptor (Homo sapiens, UniProt P14416); test: Selectivity interaction (GPCR panel (PDSP screen)) EUB0001079a DRD2; details: at 10 µM
[5] = biological target: Serine/threonine-protein kinase PAK 2 (Homo sapiens) (UniProt Q13177); details: at 10 µM
Focal adhesion kinase 1 = Focal adhesion kinase 1 (Homo sapiens, UniProt Q05397); test: Selectivity interaction (ActivX KiNativ screen (kinase selectivity in THP-1 cell lysates)) EUB0000639a PTK2; format: subcellular; details: lysate, at 0.04 µM
Chain of Focal adhesion kinase 1 (Q05397 2-1052 limits assumed): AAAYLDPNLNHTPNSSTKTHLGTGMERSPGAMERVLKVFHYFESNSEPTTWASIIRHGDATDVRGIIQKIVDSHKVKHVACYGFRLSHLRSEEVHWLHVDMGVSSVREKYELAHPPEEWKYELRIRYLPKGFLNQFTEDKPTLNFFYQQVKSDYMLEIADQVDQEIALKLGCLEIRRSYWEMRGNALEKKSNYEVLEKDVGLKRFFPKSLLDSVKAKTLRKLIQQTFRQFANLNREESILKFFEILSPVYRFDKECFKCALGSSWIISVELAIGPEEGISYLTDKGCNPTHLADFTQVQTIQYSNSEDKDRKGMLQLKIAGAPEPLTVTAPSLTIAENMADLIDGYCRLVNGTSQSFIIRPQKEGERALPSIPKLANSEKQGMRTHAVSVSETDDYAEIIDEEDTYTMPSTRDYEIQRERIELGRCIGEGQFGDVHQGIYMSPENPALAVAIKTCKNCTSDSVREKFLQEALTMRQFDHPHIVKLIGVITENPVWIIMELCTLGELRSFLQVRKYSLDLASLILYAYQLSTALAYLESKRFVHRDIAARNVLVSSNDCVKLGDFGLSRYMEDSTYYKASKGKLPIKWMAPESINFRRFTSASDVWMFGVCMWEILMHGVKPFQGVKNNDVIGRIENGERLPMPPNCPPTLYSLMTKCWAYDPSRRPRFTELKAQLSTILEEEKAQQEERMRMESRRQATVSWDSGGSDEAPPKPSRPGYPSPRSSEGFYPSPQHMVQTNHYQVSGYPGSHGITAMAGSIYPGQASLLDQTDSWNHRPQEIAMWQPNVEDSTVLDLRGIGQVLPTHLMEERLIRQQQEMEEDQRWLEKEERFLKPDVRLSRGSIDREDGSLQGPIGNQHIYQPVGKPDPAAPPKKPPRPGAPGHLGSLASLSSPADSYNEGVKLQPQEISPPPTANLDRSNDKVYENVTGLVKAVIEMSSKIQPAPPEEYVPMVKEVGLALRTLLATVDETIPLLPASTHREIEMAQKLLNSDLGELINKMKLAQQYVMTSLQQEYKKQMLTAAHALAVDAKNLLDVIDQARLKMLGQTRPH

[6] = biological target: Calcium/calmodulin-dependent protein kinase type II subunit delta (Homo sapiens) (UniProt Q13557); test: Selectivity interaction (KinomeScan (DiscoverX)) EUB0000607a CAMK2D; details: at 10 µM
Chain of Calcium/calmodulin-dependent protein kinase type II subunit delta (Homo sapiens) (Q13557 whole entry): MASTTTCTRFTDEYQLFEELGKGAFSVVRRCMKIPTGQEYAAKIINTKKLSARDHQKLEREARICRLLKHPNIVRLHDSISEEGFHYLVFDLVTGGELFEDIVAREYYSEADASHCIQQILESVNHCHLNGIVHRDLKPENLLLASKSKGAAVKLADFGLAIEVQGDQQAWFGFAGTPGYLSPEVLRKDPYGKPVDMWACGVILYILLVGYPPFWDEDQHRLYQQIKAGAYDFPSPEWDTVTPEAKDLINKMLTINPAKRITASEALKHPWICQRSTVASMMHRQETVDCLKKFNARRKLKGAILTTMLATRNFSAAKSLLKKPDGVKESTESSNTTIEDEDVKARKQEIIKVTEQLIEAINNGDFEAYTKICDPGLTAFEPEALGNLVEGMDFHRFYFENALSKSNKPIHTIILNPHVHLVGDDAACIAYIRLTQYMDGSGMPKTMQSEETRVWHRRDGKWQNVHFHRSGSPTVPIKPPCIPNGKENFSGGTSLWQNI

[7] = biological target: T1, Myosin-IIIb (Homo sapiens) (UniProt Q8WXR4); test: Selectivity interaction (KinomeScan (DiscoverX)) EUB0000595a MYO3B; details: at 10 µM
T1 sequence (whole entry): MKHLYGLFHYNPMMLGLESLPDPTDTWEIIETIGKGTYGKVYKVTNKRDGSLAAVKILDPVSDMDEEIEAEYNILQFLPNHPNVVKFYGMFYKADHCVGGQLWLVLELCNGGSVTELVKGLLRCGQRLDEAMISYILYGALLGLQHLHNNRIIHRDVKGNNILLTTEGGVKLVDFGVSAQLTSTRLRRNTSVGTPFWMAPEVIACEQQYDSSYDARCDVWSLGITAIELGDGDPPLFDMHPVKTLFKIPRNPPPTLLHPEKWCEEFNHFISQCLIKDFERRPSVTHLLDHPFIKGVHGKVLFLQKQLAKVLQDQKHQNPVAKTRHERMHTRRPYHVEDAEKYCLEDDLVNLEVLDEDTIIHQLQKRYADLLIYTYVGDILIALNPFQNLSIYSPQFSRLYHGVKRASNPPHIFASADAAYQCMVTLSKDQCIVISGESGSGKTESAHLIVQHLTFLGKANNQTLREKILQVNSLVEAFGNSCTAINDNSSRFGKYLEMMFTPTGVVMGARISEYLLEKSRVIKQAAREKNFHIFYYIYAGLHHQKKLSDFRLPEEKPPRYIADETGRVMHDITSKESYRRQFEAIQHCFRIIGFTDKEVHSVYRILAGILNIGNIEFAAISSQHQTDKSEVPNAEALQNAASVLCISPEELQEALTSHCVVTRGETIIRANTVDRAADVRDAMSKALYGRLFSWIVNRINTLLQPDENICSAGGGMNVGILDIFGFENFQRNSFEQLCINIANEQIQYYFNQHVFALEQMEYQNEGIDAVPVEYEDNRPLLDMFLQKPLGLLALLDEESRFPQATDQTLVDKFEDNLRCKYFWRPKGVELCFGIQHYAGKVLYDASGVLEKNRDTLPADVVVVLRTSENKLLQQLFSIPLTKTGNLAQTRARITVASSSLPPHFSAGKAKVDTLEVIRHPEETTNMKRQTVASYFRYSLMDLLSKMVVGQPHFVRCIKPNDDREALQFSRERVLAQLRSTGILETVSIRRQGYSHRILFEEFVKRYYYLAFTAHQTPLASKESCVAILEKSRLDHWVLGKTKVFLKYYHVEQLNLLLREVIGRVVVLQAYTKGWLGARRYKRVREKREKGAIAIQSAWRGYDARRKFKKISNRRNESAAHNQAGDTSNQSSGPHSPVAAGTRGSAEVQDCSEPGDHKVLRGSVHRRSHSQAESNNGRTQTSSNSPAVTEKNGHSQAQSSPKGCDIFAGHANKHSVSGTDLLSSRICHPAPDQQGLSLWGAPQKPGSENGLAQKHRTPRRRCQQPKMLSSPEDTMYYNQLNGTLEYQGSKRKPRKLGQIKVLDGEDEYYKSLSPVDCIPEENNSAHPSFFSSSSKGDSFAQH

[8] = biological target: Phosphatidylinositol 4,5-bisphosphate 3-kinase catalytic subunit beta isoform (Homo sapiens) (UniProt P42338); test: Selectivity interaction (KinomeScan (DiscoverX)) EUB0000595a PIK3CB; details: at 10 µM
[9] = biological target: T2, Receptor-interacting serine/threonine-protein kinase 4 (Homo sapiens) (UniProt P57078); test: Selectivity interaction (KinomeScan (DiscoverX)) EUB0000618a RIPK4; details: at 10 µM
T2 sequence (whole entry): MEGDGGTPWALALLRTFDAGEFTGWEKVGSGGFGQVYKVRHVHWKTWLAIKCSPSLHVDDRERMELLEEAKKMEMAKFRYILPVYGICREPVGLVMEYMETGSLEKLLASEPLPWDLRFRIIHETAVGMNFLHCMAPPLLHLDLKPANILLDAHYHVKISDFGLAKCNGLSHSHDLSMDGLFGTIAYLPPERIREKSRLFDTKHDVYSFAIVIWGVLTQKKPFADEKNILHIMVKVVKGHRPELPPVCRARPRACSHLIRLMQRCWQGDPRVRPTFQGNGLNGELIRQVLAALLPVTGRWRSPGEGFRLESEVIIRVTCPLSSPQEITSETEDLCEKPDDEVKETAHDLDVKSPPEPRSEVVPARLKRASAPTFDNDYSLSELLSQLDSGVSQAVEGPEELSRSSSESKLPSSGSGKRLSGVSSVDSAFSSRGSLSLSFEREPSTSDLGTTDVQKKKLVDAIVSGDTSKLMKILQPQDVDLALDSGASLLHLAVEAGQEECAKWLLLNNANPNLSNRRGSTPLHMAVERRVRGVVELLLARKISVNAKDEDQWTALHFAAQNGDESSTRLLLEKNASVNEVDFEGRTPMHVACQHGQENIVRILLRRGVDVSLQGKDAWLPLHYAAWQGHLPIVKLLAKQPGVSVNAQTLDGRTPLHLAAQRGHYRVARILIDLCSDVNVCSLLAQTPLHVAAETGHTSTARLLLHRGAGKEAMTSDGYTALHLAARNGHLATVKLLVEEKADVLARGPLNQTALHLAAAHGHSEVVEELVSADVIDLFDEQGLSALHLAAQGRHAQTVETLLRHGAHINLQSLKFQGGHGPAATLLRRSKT

[10] = biological target: Serine/threonine-protein kinase 25 (Homo sapiens) (UniProt O00506); test: Selectivity interaction (KinomeScan (DiscoverX)) EUB0000618a STK25; details: at 10 µM
[11] = biological target: Death-associated protein kinase 2 (Homo sapiens) (UniProt Q9UIK4); test: Selectivity interaction (KinomeScan (DiscoverX)) EUB0001619a DAPK2; details: at 1 µM

Chain of Leucine-rich repeat serine/threonine-protein kinase 2 (Q5S007 whole entry): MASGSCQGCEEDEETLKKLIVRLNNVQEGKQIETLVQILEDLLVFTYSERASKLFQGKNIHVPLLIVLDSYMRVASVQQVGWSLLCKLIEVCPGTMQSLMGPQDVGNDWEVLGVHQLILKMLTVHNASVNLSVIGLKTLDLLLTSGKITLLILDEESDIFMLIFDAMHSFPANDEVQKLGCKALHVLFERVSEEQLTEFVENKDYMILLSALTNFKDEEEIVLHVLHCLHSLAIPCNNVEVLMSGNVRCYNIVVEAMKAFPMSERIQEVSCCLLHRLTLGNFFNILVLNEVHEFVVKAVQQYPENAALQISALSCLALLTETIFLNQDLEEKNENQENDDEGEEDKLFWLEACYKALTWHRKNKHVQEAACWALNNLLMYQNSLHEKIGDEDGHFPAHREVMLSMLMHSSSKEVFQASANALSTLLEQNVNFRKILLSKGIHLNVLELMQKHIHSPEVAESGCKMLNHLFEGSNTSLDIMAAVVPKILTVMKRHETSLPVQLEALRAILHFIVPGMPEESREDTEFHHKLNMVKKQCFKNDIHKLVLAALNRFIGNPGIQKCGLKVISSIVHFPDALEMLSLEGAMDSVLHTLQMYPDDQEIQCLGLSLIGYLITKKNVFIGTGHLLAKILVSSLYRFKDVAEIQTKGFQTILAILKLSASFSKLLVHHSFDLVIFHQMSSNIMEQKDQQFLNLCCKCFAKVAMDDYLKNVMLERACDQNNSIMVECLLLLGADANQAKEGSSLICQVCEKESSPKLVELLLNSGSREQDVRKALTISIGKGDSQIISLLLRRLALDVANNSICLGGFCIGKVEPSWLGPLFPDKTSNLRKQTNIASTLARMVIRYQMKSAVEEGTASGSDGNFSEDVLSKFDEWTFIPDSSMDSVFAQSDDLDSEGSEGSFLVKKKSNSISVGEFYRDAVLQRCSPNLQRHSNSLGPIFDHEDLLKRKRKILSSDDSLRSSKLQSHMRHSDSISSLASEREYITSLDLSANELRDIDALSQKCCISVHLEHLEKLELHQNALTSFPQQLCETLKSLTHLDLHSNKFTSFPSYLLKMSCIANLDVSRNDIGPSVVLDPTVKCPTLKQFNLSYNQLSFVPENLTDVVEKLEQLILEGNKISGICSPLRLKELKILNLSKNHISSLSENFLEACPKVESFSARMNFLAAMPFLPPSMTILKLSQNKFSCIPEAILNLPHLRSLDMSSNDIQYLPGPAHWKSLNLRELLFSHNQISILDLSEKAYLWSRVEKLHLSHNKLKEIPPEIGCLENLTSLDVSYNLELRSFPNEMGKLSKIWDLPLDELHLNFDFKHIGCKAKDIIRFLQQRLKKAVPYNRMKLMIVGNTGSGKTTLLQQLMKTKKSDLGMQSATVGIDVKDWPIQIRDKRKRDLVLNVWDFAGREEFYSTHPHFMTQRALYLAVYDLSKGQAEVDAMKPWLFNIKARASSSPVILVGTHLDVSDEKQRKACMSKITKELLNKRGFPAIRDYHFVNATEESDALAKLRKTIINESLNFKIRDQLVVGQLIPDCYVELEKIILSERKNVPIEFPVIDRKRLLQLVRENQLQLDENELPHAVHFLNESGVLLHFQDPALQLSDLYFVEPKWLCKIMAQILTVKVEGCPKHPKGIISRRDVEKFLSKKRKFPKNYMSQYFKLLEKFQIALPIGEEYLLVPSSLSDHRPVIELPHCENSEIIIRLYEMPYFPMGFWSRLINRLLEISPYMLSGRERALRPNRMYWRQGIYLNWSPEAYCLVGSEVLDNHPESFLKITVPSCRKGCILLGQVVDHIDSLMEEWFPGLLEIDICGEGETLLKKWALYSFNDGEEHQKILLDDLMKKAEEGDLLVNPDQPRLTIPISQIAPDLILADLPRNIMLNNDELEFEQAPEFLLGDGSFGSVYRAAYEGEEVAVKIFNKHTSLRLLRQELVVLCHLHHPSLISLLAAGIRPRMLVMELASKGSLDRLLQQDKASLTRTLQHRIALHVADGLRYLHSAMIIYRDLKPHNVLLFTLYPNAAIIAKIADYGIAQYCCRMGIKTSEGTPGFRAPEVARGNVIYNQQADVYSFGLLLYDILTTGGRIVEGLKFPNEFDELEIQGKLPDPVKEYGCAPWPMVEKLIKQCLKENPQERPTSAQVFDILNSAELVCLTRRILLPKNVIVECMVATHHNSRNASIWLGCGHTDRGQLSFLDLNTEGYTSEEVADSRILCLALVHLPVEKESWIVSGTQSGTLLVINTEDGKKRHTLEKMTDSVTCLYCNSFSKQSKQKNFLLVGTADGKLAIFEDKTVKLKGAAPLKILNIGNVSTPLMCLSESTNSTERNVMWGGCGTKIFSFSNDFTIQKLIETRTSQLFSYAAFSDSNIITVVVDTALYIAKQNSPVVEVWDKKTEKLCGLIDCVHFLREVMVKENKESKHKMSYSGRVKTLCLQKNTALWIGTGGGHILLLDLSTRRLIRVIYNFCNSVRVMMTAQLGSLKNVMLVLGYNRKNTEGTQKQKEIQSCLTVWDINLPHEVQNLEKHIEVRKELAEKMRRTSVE

**Q.** How did the % of control [1] turn out when `CCN(CC)CCCCNc1ncc2cc(-c3cc(OC)cc(OC)c3)c(NC(=O)NC(C)(C)C)nc2n1` was run?
**A.** The % of control was 100%.

**Q.** With `CC(C)(O)[C@H](F)CN1Cc2cc(NC(=O)c3cnn4cccnc34)c(N3CCOCC3)cc2C1=O` as the compound, how does the % of inhibition [2] read?
**A.** The % of inhibition was 91.4%.

**Q.** Which % activity ([3]; at 1 µM) does the source give for `COCCN1CCC(c2cc(CN(C)C(=O)c3cccc(Oc4ccccc4)c3)ccn2)CC1` here?
**A.** Its % activity is > 95%.

**Q.** And the % activity ([3]; at 10 µM)?
**A.** Its % activity is > 90%.

**Q.** Which % of control [4] does the source give for `CN(C)CCOc1ccc(-c2nc(-c3ccncc3)c(-c3ccc4c(c3)CC/C4=N\O)[nH]2)cc1` here?
**A.** Its % of control is 83%.

**Q.** For `Nc1cnc(N2CCc3cc(S(=O)(=O)Nc4c(F)cc(Cl)cc4F)cc(N4CCCC4=O)c32)nc1` [TP-020n], which % of inhibition (D(2) dopamine receptor) is on record?
**A.** The % of inhibition was -0.42%.

**Q.** `Cc1cc([C@@H](C)Nc2ccccc2C(=O)O)c2nc(N3CCOCC3)cc(=O)n2c1` [AZD-6482] was tested. Which % of control [5] did it give?
**A.** Its % of control is 100%.

**Q.** `CC[C@@H]1[C@H](F)C(=O)N[C@@H]1COc1nccc2cc(C(N)=O)c(OC)cc12` [ZIMLOVISERTIB] was tested. Which % of inhibition (Focal adhesion kinase 1) did it give?
**A.** The % of inhibition was -20.7%.

**Q.** Which % of control [6] does the source give for `CNC(=O)Nc1ccc(-c2nc(N3CC4CCC(C3)O4)c3cnn(C4CCC5(CC4)OCCO5)c3n2)cc1` here?
**A.** The % of control was 100%.

**Q.** Which % of control [7] does the source give for `COCC(=O)NC/C=C/c1ccc2ncnc(Nc3ccc(Oc4ccc(C)nc4)c(C)c3)c2c1` [CP-724714] here?
**A.** Its % of control is 100%.

**Q.** What about the % of control [8] of the same compound?
**A.** The % of control was 100%.

**Q.** What does the source list for `O[C@H]1CC[C@H](Nc2ncc3nc(Nc4c(F)cc(F)cc4F)n([C@H]4CCOC4)c3n2)CC1`?
**A.** % of control [9]: 88%; % of control [10]: 64%

**Q.** With `N#Cc1cccc(-c2c[nH]c3ncnc(N4CCOCC4)c23)c1` as the compound, how does the % of control [11] read?
**A.** The % of control was 100%.

— ChEMBL document CHEMBL5465560, “Selectivity Literature for EUbOPEN Chemogenomic Library” (2024)
